# Data reported in patent US6905852B1, “Herbicide-resistant protoporphyrinogen oxidase isolated from Nicotiana tabacum” (Nihon Nohyaku Co., Ltd., priority 1997, dated 2005).
# Columns and labels:
# [1] = target: T1, protoporphyrinogen oxidase extracted from ETR-245 (Nicotiana tabacum, UniProt O24163, A231V); assay: Protoporphyrinogen oxidase activity of crude enzyme preparation; assay type: biochemical
# T1 construct: from tissue; host or cells: tobacco callus, herbicide-tolerant cell line ETR-245; crude particulate fraction
# T1 sequence (O24163 51-548 A231V): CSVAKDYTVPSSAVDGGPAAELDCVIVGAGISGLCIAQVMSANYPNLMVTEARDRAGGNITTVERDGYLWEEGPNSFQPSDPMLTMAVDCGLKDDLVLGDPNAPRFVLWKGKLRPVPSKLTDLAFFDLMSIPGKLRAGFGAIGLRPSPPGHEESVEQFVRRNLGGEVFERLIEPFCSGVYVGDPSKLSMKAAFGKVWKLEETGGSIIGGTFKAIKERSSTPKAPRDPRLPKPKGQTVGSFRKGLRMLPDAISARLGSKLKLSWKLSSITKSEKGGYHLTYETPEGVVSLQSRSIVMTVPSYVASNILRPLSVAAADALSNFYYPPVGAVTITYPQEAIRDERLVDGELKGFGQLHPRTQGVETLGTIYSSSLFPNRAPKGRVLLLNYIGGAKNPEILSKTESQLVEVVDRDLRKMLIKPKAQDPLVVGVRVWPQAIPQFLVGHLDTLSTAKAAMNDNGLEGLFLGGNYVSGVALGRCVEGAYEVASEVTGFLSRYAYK
# Procedure: (§1) Using the same procedures described in Nicolaus, B. et al. (1993) in “Target Assay for Modern Herbicide and Related Phytotoxic Compound” Lewis Publishers, pp. 35-41, five volume of extraction buffer (50 mM Tris-HCl (pH 7.5), 0.5 M sucrose, 0.2% BSA, 1 mM EDTA) was added to callus which was cultured in MS solid medium for one month, and homogenized. After filtration with gauze, filtrate was centrifuged with 10,000×g at 4° C. for 5 minutes. Thus obtained precipitate was suspended with 25 ml of ethanol buffer, centrifuged with 150×g at 4° C. for 2 minutes. Thus obtained supernatant was centrifuged with 4,000×g at 4° C. for 15 minutes, and the precipitate was dissolved with 2 ml of 20% glycerol. The protein amount in the obtained crude enzyme preparation was measured with the protein measuring kit (manufactured by Bio-Rad Co., Ltd.).
# (§2) The powder of sodium amalgam was prpared as follows. Into a round flask of 500 ml volume, 13 g of mercury and 0.5 g of thin-layer metal sodium were added, and equilibrated with nitrogen gas for 5 minutes, and it was shaked for 5 minutesthen. […] of protoporphyrin IX was dissolved into 10 mM KOH containing 15 ml of 20% ethanol, incubated at 4° C. To 4 ml of the protoporphyrin IX solution, equal amount of reaction mixture (0.1 M MES, 50 mM ascorbic acid) was added, and 16 mg of sodium amalgam freshly prepared was added, and shaken vigorously under nitrogen gas in a dark. The reaction mixture was filtered with a three-layer glass filter in a dark, and diluted 2.5 times with 0.1 M MES (pH4.5), and divided into 1 ml each in a light-shielded test tube and stored at −80° C.
# (§3) 3 ml of reaction buffer (100 mM Tris-HCl (pH 7.6), 1 mM EDTA, 5 mM DTT, 0.03% Tween 80) were added to a cell of a fluorescence spectrophotometer, then, the crude enzyme prparation was added at the final concentration of 0.1 mg protein/ml, and it was heated gradually to room temperature. After heating, protoporphyrinogen IX was added at the final concentration of 2 μM, and the gaseous phase was replaced with nitrogen gas, and a reaction was started. Fluorescence was monitored with a spectrophotometer for 30 minutes starting 10 minutes after the start of the reaction, and enzyme activity was measured (Ex:405 nm,Em:631.5 nm).
# (§4) Activity of protoporphyrinogen oxidase in crude enzyme preparation which was extracted from a sensitive tobacco and ETR-245 and the extent of inhibition by compound A were compared (Table 4). As a result, activity of the crude enzyme preparation derived from the sensitive strain was 2.39 units, and the activity of the crude enzyme liquid derived from ETR-245 strain was 2.85 units, and there was no large difference between the activities. […] Incidentally, since the reaction mixture became turbidat the concentration of more than 5,000 nM, it was impossible to measure the fluoroescence. From the above results, the resistant mechanism in ETR-245 to the photobleaching herbicide could be thought that the some mutations in the structure of the enzyme occurred, and was not over production of protoporphyrinogen oxidase which was a target enzyme of photobleaching herbicide.
# [2] = target: T2, protoporphyrinogen oxidase extracted from the sensitive cell line (Nicotiana tabacum, UniProt O24163, A174P/A191P/T382S); assay: as above; assay type: biochemical
# T2 construct: from tissue; host or cells: tobacco callus, herbicide-sensitive cell line; crude particulate fraction
# T2 sequence (O24163 51-548 A174P/A191P/T382S): as the sequence (O24163 51-548 A231V) above, with A124P, A141P, V181A, T332S counted along it
# Procedure: as §1, §2, §3, §4
# [3] = system: transformed tobacco plant, Tobacco resistant type (pBI-NtPX-RC); assay: Leaf disk method, bleaching; assay type: cell-based, N. Tabacum var. SR1
# Procedure: (§5) The A. tumefacience having the binary vector which had been stored at −80° C. was cultured with shaking at 27° C. for 24 hours in 523 liquid medium (1% sucrose, 0.8% Bacto-tryptone, 0.4% Bacto-yeast extract, 0.2% K2HPO4, 0.03% MgSO4.7H2O) containing kanamycin. A disk (9 mm diameter) of a tobacco (N. Tabacum var. SR1) leaf which had been surface sterilized was immersed for one minute into the culture of the A. tumefacience, and then the culture liquid attached thereon was removed with a sterilized paper towel. The leaf disk was transferred into MS agar medium containing 0.6% agar in which 2 ppm NAA and 0.2 ppm BA were added, with the reverse side of leaf being made upside, and incubated at 25° C. for 48 hours. The leaf disk was transferred into MS liquid medium containing 500 ppm carbenicillin, 200 ppm claforan, 2 ppm NAA and 0.2 ppm BA and cultured with shaking at 27° C. for 48-72 hours to remove A. tumefacience. The leaf disk was transferred into MS liquid medium containing 0.6% agar, 100 ppm of carbenycillin, 200 ppm of claforan and 150 ppm of kanamycin, 2 ppm NAA and 0.2 ppm BA and incubated at 27° C. for 2-3 weeks and formation of shoot was induced. The shoot was transferred into medium for root development (½ MS, 0.02 ppm IBA, 1.5% sucrose, 0.2% gellan gum) and development of root was introduced. The young plant thus obtained was transferred into culture soil, and was grown in a green house.
# (§6) From the transformed plant with which the confirmation of introduction of gene was finished, and non-transformed plant used as a control, a leaf almost the same position of the leaf was picked and 9 mm diameter leaf disks were prepared, and floated on a dish in which 0, 125, 250, 1,250, 2,500, 5,000, 12,500 nM of compound A aqueous solution were contained. After incubation at 27° C. for one week under continuous strong light, the bleaching of the leaf disks was observed, and the permissive concentration to compound A was calculated. As a result (Table 7), in case that the tolerant type of protoporphirinogen oxidase cDNA from tobacco was introduced by pBI-NtPX-RC, more than 100 times of tolerance was observed comparing to the control non-transformed plant. However, in case that rsistant type cDNA from Arabidopsis thaliana was introduced by pBI-AtPX-RC, 4 times of resistance was observed comparing to the control, and in case that the wild type cDNA was introduced, high resistance was not observed in each case.
# [4] = system: transformed tobacco plant, Tobacco wild type (pBI-NtPX-HC); assay: Leaf disk method, bleaching; assay type: cell-based, N. Tabacum var. SR1
# Procedure: as §5, §6
# [5] = system: transformed tobacco plant, Arabidopsis thaliana wild type (pBI-AtPX-HC); assay: Leaf disk method, bleaching; assay type: cell-based, N. Tabacum var. SR1
# Procedure: as §5, §6
smiles,measurement,setting,value
"CCOC(=O)COc1cc(-c2nn(C)c(OC(F)F)c2Cl)c(F)cc1Cl [Compound A, ethyl 2-chloro-5-(4-chloro-5-difluoromethoxy-1-methyl-1H-pyrazol-3-yl)-4-fluorophenoxyacetate]",Enzyme activity(unit),"[1]; ETR-245, 10 nM, 1 unit = 1 nM protoporphyrin IX/min/mg protein",3.59 unit
same,Enzyme activity(unit),"[1]; ETR-245, 40 nM",4.41 unit
same,Enzyme activity(unit),"[1]; ETR-245, 100 nM",2.21 unit
same,Enzyme activity(unit),"[1]; ETR-245, 500 nM",3.49 unit
same,Enzyme activity(unit),"[1]; ETR-245, 1,000 nM",2.85 unit
same,Enzyme activity(unit),"[1]; ETR-245, 2,400 nM",2.48 unit
same,Enzyme activity(unit),"[1]; ETR-245, 5,000 nM",1.56 unit
same,IC50,"[1]; IC50 value (nM), crude enzyme from ETR-245",≥ 5000 nM
same,resistance at enzyme level (ETR-245 vs sensitive),[1]; ratio of IC50 values,more than 100 times
same,IC50,[2],48 nM
same,Enzyme activity(unit),"[2]; Sensitive, 10 nM, 1 unit = 1 nM protoporphyrin IX/min/mg protein",4.32 unit
same,Enzyme activity(unit),"[2]; Sensitive, 20 nM",3.62 unit
same,Enzyme activity(unit),"[2]; Sensitive, 40 nM",1.84 unit
same,Enzyme activity(unit),"[2]; Sensitive, 100 nM",0.00 unit
same,Enzyme activity(unit),"[2]; Sensitive, 500 nM",0.00 unit
same,Enzyme activity(unit),"[2]; Sensitive, 1,000 nM",0.00 unit
same,Enzyme activity(unit),"[2]; Sensitive, 2,400 nM",0.00 unit
same,Enzyme activity(unit),"[2]; Sensitive, 5,000 nM",0.00 unit
same,Permission conc. to compound A,[3],">12,500 nM"
same,Permission conc. to compound A,[4],500 nM
same,Resistance,[4]; vs non-transformed,4 X
same,Permission conc. to compound A,[5]; Arabidopsis thaliana Wild type (pBI-AtPX-HC),250 nM
same,Resistance,"[5]; Arabidopsis thaliana Wild type, vs non-transformed",2 X
